Assay results taken from US5817648A, “Vitamin D3 analogues having an unsaturated side chain” (Duphar International Research B.V., priority 1995, dated 1998).

Key:
[1] = test system: human leukemic cell line HL-60; test: Cell differentiation in HL-60 assay (NBT reduction); format: cell-based; settings: compared with calcitriol
Procedure: The vitamin D compounds to be investigated are dissolved in ethanol in concentrations ranging from 10^-12 to 10^-6 M and tested for their capacity to induce cell differentiation in a HL-60 assay. In this assay, biochemical examination of the human leukemic cell line HL-60 is performed, in order to establish whether cell differentiation has taken place.
Differentiation is expressed as the maturation parameter nitroblue tetrazolium (NBT) reduction. After culturing with the known calcitriol or with the vitamin D compounds to be investigated, the percentage of cells containing black formazan deposits is determined. An increase in the percentage of NBT reducing cells indicates an increase in cell differentiation.
Proliferation and vitality of the cell cultures are established by counting the number of cells and by the trypan blue exclusion method.

[2] = molecular target: T1, calf thymus intracellular vitamin D receptor (VDR) (Bos taurus, UniProt Q28037); test: Affinity to intracellular vitamin D receptor (displacement of 3H-1α,25-DHCC); format: binding
T1 construct: calf thymus intracellular vitamin D receptor (VDR); from tissue; host or cells: calf thymus
T1 sequence (Q28037 1-426): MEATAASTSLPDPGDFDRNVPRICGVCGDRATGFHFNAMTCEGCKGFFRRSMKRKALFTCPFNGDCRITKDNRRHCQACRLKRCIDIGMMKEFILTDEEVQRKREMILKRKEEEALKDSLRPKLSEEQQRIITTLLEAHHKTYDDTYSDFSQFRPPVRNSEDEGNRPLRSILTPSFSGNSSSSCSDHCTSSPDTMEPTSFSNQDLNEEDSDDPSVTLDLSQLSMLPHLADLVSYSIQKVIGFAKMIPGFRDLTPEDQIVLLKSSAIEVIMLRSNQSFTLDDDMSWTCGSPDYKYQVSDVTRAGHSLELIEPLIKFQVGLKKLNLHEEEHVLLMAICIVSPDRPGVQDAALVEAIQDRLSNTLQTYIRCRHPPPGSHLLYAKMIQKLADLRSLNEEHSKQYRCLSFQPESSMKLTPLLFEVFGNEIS
From the text: In this assay, ^3 H-1α,25-dihydroxycholecalciferol (^3 H-1α,25-DHCC), which is specifically bound to the VDR, is replaced by the tested compounds. […] 9 times that of calcitriol. A high affinity towards the VDR is indicative for biologically active compounds.

[3] = test system: Vitamin D binding protein (DBP); test: Affinity to vitamin D binding protein (competition with 3H-1α,25-DHCC); settings: DBP purified from total human serum
Procedure: Vitamin D binding protein (DBP) is the specific carrier for vitamin D and its metabolites in blood. The biological activity of vitamin D compounds depends on their binding to DBP, because strong binding to DBP will reduce the intracellular access to the VDR. Binding to the DBP may also influence the half-life of the vitamin D derivatives in circulation. Weak binders are rapidly metabolized, which is a favourable aspect in topical application.
In the assay, DBP is incubated with ^3 H-1α,25-DHCC and 1α,25-DHCC or with the vitamin D compounds to be investigated. To this purpose, the vitamin compounds are dissolved in ethanol in concentrations ranging from 10^-11 to […]. The percentage bound/unbound ^3 H-1α,25-DHCC is then calculated. DBP is purified from total human serum. Both 24,24-dihomo-.increment.(24-24a)-calcitriol and 24,24-dihomo-.increment.(24a-24b)-calcitriol are much weaker binders to the DBP than calcitriol (2% and 3.5% respectively).

Row | SMILES | activity in inducing differentiation of HL-60 cells, times less active than calcitriol [1] [times less active] | affinity towards the VDR relative to calcitriol ([2]; relative to calcitriol) [%] | binding to the DBP relative to calcitriol [3] [%] | activity in inducing differentiation and maturation of the HL-60 cells (in words) [1] | affinity towards the VDR, times that of calcitriol [2]
1 | C=C1/C(=C\C=C2/CCC[C@]3(C)[C@@H]([C@H](C)CC/C=C/CC(C)(C)O)CC[C@@H]23)C[C@@H](O)C[C@@H]1O [24,24-dihomo-.increment.(24-24a)calcitriol] | 4 | ≤ 1 | 2 |  | 
2 | C=C1/C(=C\C=C2/CCC[C@]3(C)[C@@H]([C@H](C)CCCC(C)(C)O)CC[C@@H]23)C[C@@H](O)C[C@@H]1O [Calcitriol, calcitriol] |  |  |  | equally active | 
3 | C=C1/C(=C\C=C2/CCC[C@]3(C)[C@@H]([C@H](C)CCC/C=C/C(C)(C)O)CC[C@@H]23)C[C@@H](O)C[C@@H]1O [Compound 16, (5Z,7E)-(1S,3R)-9,10-Seco-24a,24b-dihomo-(24aE)-5,7,10(19),24a-cholestatetraen-1,3,25-triol] |  |  | 3.5 | equally active | 9 times that of calcitriol
